Assay results taken from patent US6399646B1 (priority 2001, dated 2002).
Where two headings read alike, the source gives them in different places. Marks after values point to notes of the source that are not given here.

Key:
Ralstonia solanacearum = format: in vivo; conditions: for Bacterial wilt severity: foliar application, tomato plants, scale 0=healthy to 4=dead plant
Ralstonia [1] = conditions: tomato plants transferred into hydroponic solutions inoculated with Ralstonia and previously treated with 3-IBA; more than 60% wilt in its absence; cited from earlier work
Ralstonia [2] = conditions: solution added to Ralstonia culture liquid in physiological brine; cited from earlier work

Row | SMILES | Bacterial wilt severity (Ralstonia solanacearum; higher concentration (2.0 lbs active ingredient per 100 gallons), rated 9/26/2000, six replications) | Bacterial wilt severity (Ralstonia solanacearum; higher concentration (2.0 lbs active ingredient per 100 gallons), rated 9/27/2000) | Bacterial wilt severity (Ralstonia solanacearum; higher concentration (2.0 lbs active ingredient per 100 gallons), rated 9/30/2000) | Bacterial wilt severity (Ralstonia solanacearum; higher concentration (2.0 lbs active ingredient per 100 gallons), rated 10/04/2000) | Bacterial wilt severity (Ralstonia solanacearum; higher concentration (2.0 lbs active ingredient per 100 gallons), rated 10/26/2000) | Bacterial wilt severity (Ralstonia solanacearum; low concentration (0.25 lbs active ingredient per 100 gallons), rated 9/26/2000, six replications) | Bacterial wilt severity (Ralstonia solanacearum; low concentration (0.25 lbs active ingredient per 100 gallons), rated 9/27/2000) | Bacterial wilt severity (Ralstonia solanacearum; low concentration (0.25 lbs active ingredient per 100 gallons), rated 9/30/2000) | Bacterial wilt severity (Ralstonia solanacearum; low concentration (0.25 lbs active ingredient per 100 gallons), rated 10/04/2000) | Bacterial wilt severity (Ralstonia solanacearum; low concentration (0.25 lbs active ingredient per 100 gallons), rated 10/26/2000) | Plants revived and recovering at the end of the trial (Ralstonia solanacearum; higher concentration, foliar treatment prior to inoculation, of 6 tomato plants) [plants] | State of the 6 treated plants by the end of the trial (Ralstonia solanacearum; low concentration, foliar treatment prior to inoculation, 6 tomato plants) | Plants slightly wilted (Ralstonia [1]) | Ralstonia growth (turbidity of culture liquid) (Ralstonia [2])
1 | CC(CC(=O)O)c1c[nH]c2ccccc12 (centres unmarked) [3-IBA, 3-(3-indolyl) butanoic acid] | 2.3 | 3.0 | 2.8 | 3.3 | 1.5*** | 2.5 | 3.0 | 4.0 | 3.8 | 4.0** | 3 | all dead | less than 10% | –
2 | C[C@@H](CC(=O)O)c1c[nH]c2ccccc12 [(S)-3-(3-indolyl) butanoic acid] | – | – | – | – | – | – | – | – | – | – | – | – | – | suppression of Ralstonia growth
